# Source: ChEMBL document CHEMBL5260859, “Discovery and structure-activity relationship study of 2-piperazinyl-benzothiazole derivatives as potent and selective PPARδ agonists” (Bioorg Med Chem, 2023)
# Columns and labels:
# [1] = biological target: T1, Peroxisome proliferator-activated receptor delta (Homo sapiens) (UniProt Q03181); assay: Agonist activity at Gal4-fused human PPAR-delta ligand binding domain expressed in CHO-K1 cells assessed as receptor transactivation incubated for 24 to 48 hrs by luciferase reporter gene assay relative to control; assay type: cell-based; details: time lower 24.0 hrs, time upper […]
# T1 sequence (whole entry): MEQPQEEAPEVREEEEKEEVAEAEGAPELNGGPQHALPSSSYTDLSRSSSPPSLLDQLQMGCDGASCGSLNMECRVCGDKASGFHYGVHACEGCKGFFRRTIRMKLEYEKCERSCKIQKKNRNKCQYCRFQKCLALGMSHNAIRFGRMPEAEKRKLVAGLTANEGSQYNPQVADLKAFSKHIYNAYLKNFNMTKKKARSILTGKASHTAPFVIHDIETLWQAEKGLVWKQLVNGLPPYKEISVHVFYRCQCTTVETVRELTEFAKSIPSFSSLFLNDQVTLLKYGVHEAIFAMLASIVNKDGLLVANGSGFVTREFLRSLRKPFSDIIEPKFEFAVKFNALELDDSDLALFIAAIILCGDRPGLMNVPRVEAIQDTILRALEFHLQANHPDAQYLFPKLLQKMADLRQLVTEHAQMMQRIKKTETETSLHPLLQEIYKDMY
# [2] = biological target: T2, Peroxisome proliferator-activated receptor delta (Homo sapiens, UniProt Q03181); assay: Agonist activity at Gal4-fused human PPAR-delta ligand binding domain expressed in CHO-K1 cells assessed as receptor transactivation incubated for 24 to 48 hrs by luciferase reporter gene assay; assay type: cell-based
# T2 sequence (Q03181 whole entry): T1 sequence (whole entry)
# [3] = biological target: T3, Peroxisome proliferator-activated receptor alpha (Mus musculus, UniProt P23204); assay: Agonist activity at Gal4-fused mouse PPAR-alpha ligand binding domain expressed in CHO-K1 cells assessed as receptor transactivation incubated for 24 to 48 hrs by luciferase reporter gene assay; assay type: cell-based
# T3 sequence (P23204 whole entry): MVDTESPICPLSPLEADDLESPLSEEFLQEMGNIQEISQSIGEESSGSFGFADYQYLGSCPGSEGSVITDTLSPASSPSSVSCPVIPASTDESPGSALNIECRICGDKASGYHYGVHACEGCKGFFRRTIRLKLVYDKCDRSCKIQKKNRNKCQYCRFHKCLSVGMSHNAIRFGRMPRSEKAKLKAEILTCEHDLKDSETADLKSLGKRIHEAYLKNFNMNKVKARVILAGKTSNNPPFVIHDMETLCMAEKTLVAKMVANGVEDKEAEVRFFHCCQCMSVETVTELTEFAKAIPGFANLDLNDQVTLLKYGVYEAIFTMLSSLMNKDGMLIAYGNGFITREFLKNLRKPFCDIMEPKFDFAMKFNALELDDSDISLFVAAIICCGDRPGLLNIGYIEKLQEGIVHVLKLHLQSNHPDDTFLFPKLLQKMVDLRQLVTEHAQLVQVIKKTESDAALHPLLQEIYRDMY
# [4] = biological target: T4, Peroxisome proliferator-activated receptor delta (Mus musculus) (UniProt P35396); assay: Agonist activity at Gal4-fused mouse PPAR-delta ligand binding domain expressed in CHO-K1 cells assessed as receptor transactivation incubated for 24 to 48 hrs by luciferase reporter gene assay relative to control; assay type: cell-based; details: time lower 24.0 hrs, time upper […]
# T4 sequence (whole entry): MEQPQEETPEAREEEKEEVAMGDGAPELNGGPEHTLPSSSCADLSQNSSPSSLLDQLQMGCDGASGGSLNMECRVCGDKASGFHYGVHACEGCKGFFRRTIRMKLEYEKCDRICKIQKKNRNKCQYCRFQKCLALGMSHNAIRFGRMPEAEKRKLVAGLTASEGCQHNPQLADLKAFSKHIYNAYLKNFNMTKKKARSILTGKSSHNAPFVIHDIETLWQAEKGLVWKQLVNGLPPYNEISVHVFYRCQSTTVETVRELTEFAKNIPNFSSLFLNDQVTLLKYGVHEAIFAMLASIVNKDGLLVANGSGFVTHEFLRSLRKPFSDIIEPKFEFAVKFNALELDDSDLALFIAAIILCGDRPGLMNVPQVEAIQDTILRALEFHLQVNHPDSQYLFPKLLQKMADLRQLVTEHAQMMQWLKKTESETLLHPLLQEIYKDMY
# [5] = biological target: T5, Peroxisome proliferator-activated receptor alpha (Mus musculus) (UniProt P23204); assay: Agonist activity at Gal4-fused mouse PPAR-alpha ligand binding domain expressed in CHO-K1 cells assessed as receptor transactivation incubated for 24 to 48 hrs by luciferase reporter gene assay relative to control; assay type: cell-based; details: time lower 24.0 hrs, time upper […]
# T5 sequence (whole entry): T3 sequence (P23204 whole entry)
# [6] = biological target: T6, Peroxisome proliferator-activated receptor delta (Mus musculus, UniProt P35396); assay: Agonist activity at Gal4-fused mouse PPAR-delta ligand binding domain expressed in CHO-K1 cells assessed as receptor transactivation incubated for 24 to 48 hrs by luciferase reporter gene assay; assay type: cell-based
# T6 sequence (P35396 whole entry): T4 sequence (whole entry)
# [7] = organism: Mus musculus; assay: Selectivity ratio of EC50 for agonist activity at Gal4-fused mouse PPAR-gamma ligand binding domain expressed in CHO-K1 cells to EC50 for agonist activity at Gal4-fused mouse PPAR-delta ligand binding domain expressed in CHO-K1 cells; assay type: cell-based
# [8] = biological target: T7, Peroxisome proliferator-activated receptor gamma (Mus musculus, UniProt P37238); assay: Agonist activity at Gal4-fused mouse PPAR-gamma ligand binding domain expressed in CHO-K1 cells assessed as receptor transactivation incubated for 24 to 48 hrs by luciferase reporter gene assay; assay type: cell-based
# T7 sequence (P37238 whole entry): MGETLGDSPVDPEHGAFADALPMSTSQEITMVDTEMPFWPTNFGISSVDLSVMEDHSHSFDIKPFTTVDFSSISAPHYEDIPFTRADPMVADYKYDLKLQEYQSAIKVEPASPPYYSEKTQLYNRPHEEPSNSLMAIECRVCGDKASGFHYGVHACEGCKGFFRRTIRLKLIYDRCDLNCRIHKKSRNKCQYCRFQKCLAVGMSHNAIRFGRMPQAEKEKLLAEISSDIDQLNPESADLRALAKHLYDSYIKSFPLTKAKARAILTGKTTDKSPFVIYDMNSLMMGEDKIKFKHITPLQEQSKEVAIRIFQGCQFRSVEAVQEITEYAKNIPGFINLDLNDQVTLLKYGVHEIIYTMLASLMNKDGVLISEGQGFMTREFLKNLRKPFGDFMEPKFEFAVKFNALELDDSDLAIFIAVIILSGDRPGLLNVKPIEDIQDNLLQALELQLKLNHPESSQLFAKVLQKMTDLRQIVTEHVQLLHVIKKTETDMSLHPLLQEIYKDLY
# [9] = biological target: T8, Peroxisome proliferator-activated receptor alpha (Homo sapiens) (UniProt Q07869); assay: Agonist activity at Gal4-fused human PPAR-alpha ligand binding domain expressed in CHO-K1 cells assessed as receptor transactivation incubated for 24 to 48 hrs by luciferase reporter gene assay relative to control; assay type: cell-based; details: time lower 24.0 hrs, time upper […]
# T8 sequence (whole entry): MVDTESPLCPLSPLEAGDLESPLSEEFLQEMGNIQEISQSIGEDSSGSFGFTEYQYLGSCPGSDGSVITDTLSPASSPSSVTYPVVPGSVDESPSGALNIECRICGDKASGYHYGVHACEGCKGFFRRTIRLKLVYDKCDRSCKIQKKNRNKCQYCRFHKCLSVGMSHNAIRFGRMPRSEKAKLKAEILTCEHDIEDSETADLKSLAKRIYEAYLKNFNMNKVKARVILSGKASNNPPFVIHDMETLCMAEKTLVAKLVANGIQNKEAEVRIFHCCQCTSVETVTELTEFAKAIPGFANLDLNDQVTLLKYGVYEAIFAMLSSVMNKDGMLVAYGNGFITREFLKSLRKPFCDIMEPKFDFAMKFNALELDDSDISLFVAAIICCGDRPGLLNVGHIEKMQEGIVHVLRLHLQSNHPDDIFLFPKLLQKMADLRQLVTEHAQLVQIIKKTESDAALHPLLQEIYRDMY
# [10] = biological target: T9, Peroxisome proliferator-activated receptor gamma (Homo sapiens, UniProt P37231); assay type: cell-based, CHO-K1
# T9 sequence (P37231 whole entry): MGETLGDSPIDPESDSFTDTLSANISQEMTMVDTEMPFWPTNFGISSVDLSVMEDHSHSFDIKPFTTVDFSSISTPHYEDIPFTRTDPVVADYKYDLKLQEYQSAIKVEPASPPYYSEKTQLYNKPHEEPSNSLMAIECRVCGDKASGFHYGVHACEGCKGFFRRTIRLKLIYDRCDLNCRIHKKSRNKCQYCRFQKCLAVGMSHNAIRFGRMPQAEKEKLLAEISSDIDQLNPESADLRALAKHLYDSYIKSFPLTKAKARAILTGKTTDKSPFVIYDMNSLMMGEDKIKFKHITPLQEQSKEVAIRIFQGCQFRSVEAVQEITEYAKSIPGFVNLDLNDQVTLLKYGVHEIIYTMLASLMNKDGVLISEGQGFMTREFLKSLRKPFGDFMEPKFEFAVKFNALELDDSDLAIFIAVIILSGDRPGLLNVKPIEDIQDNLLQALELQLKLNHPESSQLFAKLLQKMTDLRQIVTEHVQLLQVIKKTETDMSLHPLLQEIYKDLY
Structure (SMILES),Emax [1] [%],EC50 [2] [nM],EC50 [3] [nM],Emax [4] [%],Emax [5] [%],EC50 [6] [nM],EC50 [8] [nM],Emax [9] [%],EC50 [10] [nM],Ratio EC50 [7]
C[C@@H]1CN(c2nc3ccc(Cl)cc3s2)CCN1CCOc1cc(CC(=O)O)ccc1Cl,19.8,16,3200,28.3,21,47,–,–,–,–
Cc1cc(CC(=O)O)cc(CN2CCN(c3nc4ccc(C(F)(F)F)cc4s3)C[C@H]2C)c1,15.5,9.9,8000,22.1,19,34,–,–,–,–
Cc1cc(CC(=O)O)cc(CN2CCN(c3nc4ccc(C(F)(F)F)cc4s3)[C@H](C(C)C)C2)c1,13.1,3.7,–,14.6,1.3,7.5,230,–,–,–
CC1CN(c2nc3ccc(Cl)cc3s2)CCC1CCOc1cc(CC(=O)O)ccc1Cl (stereo not drawn),–,–,3600,28.7,14.2,47,1000,3,–,–
Cc1ccc(CC(=O)O)cc1OCCN1CCN(c2nc3ccc(Cl)cc3s2)CC1,14.4,33,–,25.3,–,110,–,–,–,–

# The next lines start with results.
Emax [1] [%],EC50 [2] [nM],EC50 [3] [nM],Emax [4] [%],Emax [5] [%],EC50 [6] [nM],EC50 [8] [nM],Emax [9] [%],EC50 [10] [nM],Structure (SMILES),Ratio EC50 [7]
23.2,17,–,28.3,4.6,61,660,3.1,1100,CC(C)C[C@H]1CN(c2nc3ccc(Cl)cc3s2)CCC1CCOc1cc(CC(=O)O)ccc1Cl (stereo partly drawn),11
19.5,6.9,–,22.1,1.1,28,–,–,–,Cc1cc(CC(=O)O)cc(CN2CCN(c3nc4ccc(C(F)(F)F)cc4s3)C[C@@H]2C)c1,–
–,–,8500,33.1,2.8,–,40,–,–,CC[C@@H]1CN(Cc2cc(C)cc(CC(=O)O)c2)CCN1c1nc2ccc(C(F)(F)F)cc2s1,–
21.9,7.9,3900,27.6,12.5,46,4.1,–,–,C[C@@H]1CN(CCOc2cc(CC(=O)O)ccc2Cl)CCN1c1nc2ccc(Cl)cc2s1,–
